The values that follow come from the supplement of paper PMC4862054.

One experiment deals with HCC1599. Kind of experiment: normalised viability (% of control), CellTiter-Blue; higher = more viable cells (about 100 = DMSO control). The settings on record: incubation time: 72 h. The procedure, abridged:
(§1)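 After 72 h on compound-loaded 384-well plates, breast cancer cell lines received 2.5 µl CellTiter-Blue reagent for 2 h at 37 °C. Fluorescence at 560/590 nm was scaled per plate so that vehicle was 100 and a positive kill control was 0. The value stands for normalised viability at a single listed concentration of the series.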

Another experiment deals with CAL-120. The experiment is described as above. Particulars: incubation time: 72 h. The procedure, abridged: as §1
Experiment [1] deals with SK-BR-3. The experiment is described as above. Particulars: incubation time: 72 h. The method, boiled down:
as §1

The test system of experiment [2] is BT-474. Particulars: 72 h. The method, boiled down:
(§2)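 The plates used were 384-well plates holding compound at 5 concentrations in 10-fold steps across a compound-specific 10,000-fold range, into which breast cancer cell lines were seeded in 20 µl suspension. Following 72 h incubation, CellTox Green fluorescence was read at 485/520 nm, and CellTiter-Glo luminescence was read after 10 min at room temperature. Normalisation on each plate used 0.1 % DMSO and a positive kill control. Dose-response curves gave the EC50, which was censored at the top concentration.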

In experiment [3] the test system is MFM-223. Particulars: 72 h. The method, boiled down: as §2
Another experiment concerns BT-549. The settings on record: 72 h. The procedure, abridged: as §2
The subject of the next experiment is CAL-148. Particulars: 72 h. The method, boiled down:
as §2

Experiment [4] has as its system HCC1143. Particulars: 72 h. The procedure, abridged: as §2
Experiment [5] deals with Hs578T. The settings on record: 72 h. The method, boiled down:
as §2

Experiment [6] deals with DU-4475. Particulars: 72 h. The method, boiled down: as §2
For experiment [7], the system named is CAL-85-1. The settings on record: 72 h. The method, boiled down: as §2
The next experiment deals with HCC1937. The settings on record: 72 h. The procedure, abridged: as §2
Experiment [8] concerns HDQ-P1. The settings on record: 72 h. The procedure, abridged: as §2
Experiment [9] relates to SK-BR-3. The settings on record: 72 h. The method, boiled down: as §2
Another experiment concerns MDA-MB-436. The settings on record: 72 h. The method, boiled down: as §2
The subject of the next experiment is CAL-51. The settings on record: 72 h. The method, boiled down: as §2
Experiment [10] concerns MDA-MB-453. The settings on record: 72 h. The method, boiled down: as §2
In experiment [11] the test system is Hs578T. The settings on record: 72 h. As for the experimental part: (§3)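 Drug sensitivity and resistance testing (DSRT) of breast cancer cell lines in 384-well plates, 5 concentrations in 10-fold dilutions over a compound-specific 10,000-fold range. After 72 h, cytotoxicity was read by CellTox Green fluorescence and viability by CellTiter-Glo luminescence (multiplexed), normalised to DMSO and benzethonium chloride controls. EC50 is the inflection point of the fitted dose-response curve (bottom asymptote free, so it can be relative for partial curves) and is censored at the highest tested concentration. Rows with DSS 0 (no meaningful response) were excluded.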
This is another data set of the same source.

A further experiment concerns MDA-MB-468. Particulars: 72 h. The method, boiled down: (§4)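 Breast cancer cell lines in 20 µl suspension were seeded onto 384-well plates that already held compound dissolved in 5 µl medium and were incubated for 72 h. Viability was measured by adding 2.5 µl CellTiter-Blue for 2 h at 37 °C and reading fluorescence at 560/590 nm. Each plate was normalised to vehicle and a positive kill control and checked by Z'-factor. EC50 was taken from a fitted percent-inhibition dose-response curve, censored at the highest concentration, and rows with a drug sensitivity score of zero were removed.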

Experiment [12] has as its system HCC1143. Particulars: 72 h. The method, boiled down: as §4
The source holds these as a separate data set.

For experiment [13], the system named is Hs578T. The settings on record: 72 h. The procedure, abridged: as §4
The source holds these as a separate data set.

Experiment [14] deals with BT-474. Particulars: 72 h. The procedure, abridged: as §4
This is another data set of the same source.

In experiment [15] the test system is MFM-223. The settings on record: 72 h. The method, boiled down: as §4
The source holds these as a separate data set.

For experiment [16], the system named is DU-4475. Particulars: 72 h. The procedure, abridged:
as §4
The source holds these as a separate data set.

Experiment [17] relates to CAL-85-1. Particulars: 72 h. The procedure, abridged: as §4
The source holds these as a separate data set.

The test system of experiment [18] is HDQ-P1. The settings on record: 72 h. The method, boiled down: as §4
This is another data set of the same source.

In experiment [19] the test system is MDA-MB-453. Particulars: 72 h. The method, boiled down:
as §4
This is another data set of the same source.

In experiment [20] the test system is CAL-85-1. Particulars: 72 h. How it is done: as §3
The source holds these as a separate data set.

Consider `OC[C@H]1O[C@@H](n2cnc3c2N=CNC[C@H]3O)C[C@@H]1O` [Pentostatin], for which the normalised viability with HCC1599 (10 nM) is 88.3%; in the experiment with HCC1599 (1000 nM) it was 92.3%; in the experiment on HCC1599 (10000 nM), 93.4%; in the experiment on CAL-120 (10 nM) it was 115%; in the experiment with CAL-120 (1000 nM), 103%; in the experiment with CAL-120 (10000 nM), 94.4%. The normalised viability in the experiment with SK-BR-3 [1] (10 nM) came to 108%; in the experiment on SK-BR-3 [1] (1000 nM), 104%; in the experiment with SK-BR-3 [1] (10000 nM), 116%.

`N#CC[C@H](C1CCCC1)n1cc(-c2ncnc3[nH]ccc23)cn1` [Ruxolitinib]: the “EC50, CellTiter-Glo” value in the experiment on BT-474 [2] and in the experiment on MFM-223 [3] was greater than 10000 nM each time. Moreover, the normalised viability in the experiment on HCC1599 (10 nM) stood at 114%; in the experiment on HCC1599 (1000 nM) it was 102%; in the experiment with HCC1599 (10000 nM), 91.1%; in the experiment with CAL-120 (10 nM), 102%; in the experiment with CAL-120 (1000 nM), 99%; in the experiment with CAL-120 (10000 nM), 94.5%. Also, the results for the normalised viability in the experiment with SK-BR-3 [1] (10 nM), in the experiment with SK-BR-3 [1] (1000 nM) and in the experiment on SK-BR-3 [1] (10000 nM) were 95.4%, 87.3% and 103%, respectively.

In the case of `C=CC[C@@H]1/C=C(\C)C[C@H](C)C[C@H](OC)[C@H]2O[C@@](O)(C(=O)C(=O)N3CCCC[C@H]3C(=O)O[C@H](/C(C)=C/[C@@H]3CC[C@@H](O)[C@H](OC)C3)[C@H](C)[C@@H](O)CC1=O)[C@H](C)C[C@@H]2OC` [Tacrolimus], the “EC50, CellTiter-Glo” value with BT-474 [2] is greater than 10000 nM. Also, the normalised viability in the experiment on HCC1599 (10 nM) stood at 109%; in the experiment with HCC1599 (1000 nM), 101%; with HCC1599 (10000 nM), 95.5%; with CAL-120 (10 nM) it was 106%; in the experiment on CAL-120 (1000 nM), 103%; with CAL-120 (10000 nM) it was 106%. Also, the figures for the normalised viability in the experiment with SK-BR-3 [1] (10 nM), in the experiment on SK-BR-3 [1] (1000 nM) and in the experiment on SK-BR-3 [1] (10000 nM) were 93.5%, 105% and 108%, respectively.

Consider `CO[C@H]1C[C@@H]2CC[C@@H](C)[C@@](O)(O2)C(=O)C(=O)N2CCCC[C@H]2C(=O)O[C@H]([C@H](C)C[C@@H]2CC[C@@H](OC(=O)C(C)(CO)CO)[C@H](OC)C2)CC(=O)[C@H](C)/C=C(\C)[C@@H](O)[C@@H](OC)C(=O)[C@H](C)C[C@H](C)/C=C/C=C/C=C/1C` [Temsirolimus], for which the “EC50, CellTiter-Glo” value came to 0.32 nM with BT-549; 1.28 nM in the experiment on CAL-148; 0.8 nM in the experiment with HCC1143 [4]; 0.15 nM in the experiment with Hs578T [5]; 1.42 nM in the experiment with DU-4475 [6]; 0.67 nM with CAL-85-1 [7]. Moreover, the “EC50, CellTiter-Glo” value with HCC1937 turned out to be 0.46 nM; in the experiment with HDQ-P1 [8], 17.9 nM; in the experiment with SK-BR-3 [9] it was 0.46 nM; with MDA-MB-436, 6.71 nM; in the experiment on CAL-51, 0.65 nM; in the experiment with MDA-MB-453 [10], 1.5 nM. Also, the “EC50, CellTiter-Glo” value with MFM-223 [3] turned out to be 0.77 nM. Further, the “EC50, CellTox Green” value with Hs578T [11] was 1.28 nM. The normalised viability in the experiment with HCC1599 (1 nM) worked out at 103%; in the experiment on HCC1599 (100 nM), 78.7%; with HCC1599 (1000 nM), 86.8%; in the experiment on CAL-120 (1 nM) it was 70.6%; with CAL-120 (100 nM), 46.5%; with CAL-120 (1000 nM) it was 42.7%. Also, the normalised viability was 76.1% with SK-BR-3 [1] (1 nM), 54% in the experiment on SK-BR-3 [1] (100 nM) and 49.7% in the experiment on SK-BR-3 [1] (1000 nM). The “EC50, CellTiter-Blue viability” value in the experiment on MDA-MB-468 turned out to be 0.39 nM; with HCC1143 [12] it was 1.62 nM; in the experiment on Hs578T [13] it was 1 nM; in the experiment with BT-474 [14] it was 0.67 nM; in the experiment on MFM-223 [15], 0.18 nM; in the experiment on DU-4475 [16], 2.16 nM. The “EC50, CellTiter-Blue viability” value came out at 0.11 nM in the experiment with CAL-85-1 [17], 1.34 nM with HDQ-P1 [18] and 0.37 nM with MDA-MB-453 [19].

With `C[C@]1(c2nc3c(C(N)=O)cccc3[nH]2)CCCN1` [Veliparib], the “EC50, CellTiter-Glo” value in the experiment with CAL-51 was 50 nM. In addition, the “EC50, CellTox Green” value with CAL-85-1 [20] was greater than 10000 nM. Besides, the normalised viability came to 100% in the experiment with HCC1599 (10 nM); 98.3% in the experiment with HCC1599 (1000 nM); 100% in the experiment with HCC1599 (10000 nM); 81.7% with CAL-120 (10 nM); 77% in the experiment on CAL-120 (1000 nM); 70.2% with CAL-120 (10000 nM). For the same compound, the normalised viability in the experiment on SK-BR-3 [1] (10 nM) is 93.8%; in the experiment on SK-BR-3 [1] (1000 nM) it was 93.6%; in the experiment with SK-BR-3 [1] (10000 nM), 84.6%.

With `CS(=O)(=O)c1ccc(C(=O)Nc2ccc(Cl)c(-c3ccccn3)c2)c(Cl)c1` [Vismodegib], the “EC50, CellTox Green” value in the experiment on Hs578T [11] was greater than 10000 nM. Moreover, the normalised viability turned out to be 112% in the experiment on HCC1599 (10 nM); 97.7% in the experiment with HCC1599 (1000 nM); 84.1% with HCC1599 (10000 nM); 89.7% with CAL-120 (10 nM); 90.8% in the experiment with CAL-120 (1000 nM); 85.6% in the experiment with CAL-120 (10000 nM). The normalised viability in the experiment with SK-BR-3 [1] (10 nM) amounted to 107%; in the experiment on SK-BR-3 [1] (1000 nM) it was 105%; with SK-BR-3 [1] (10000 nM) it was 95.2%.
